Data on 3 molecules can be found in patent publication US7429564B2, “Oral insulin therapy” (Emisphere Technologies, Inc., priority 2002, dated 2008).

One may read the AUC as the area under the concentration-time curve, a measure of exposure.

The nature of series [1]: Delivery agent plasma concentrations in monkeys after oral administration. It is filed as in vivo. The method, then: Similar results were obtained when delivery agents 1-3 were administered orally to monkeys and the plasma concentrations of the delivery agents monitored over time and the AUC calculated.
A short description of series [2]: Genotoxicity studies. Conditions: four studies. The protocol:
The present invention comprising compositions of insulin and the delivery agent 4-CNAB was evaluated for safety and toxicity in a nonclinical program that included pharmacological screening, pharmacokinetic profiling, and toxicity assessments in rats and monkeys.

Series [3] in a line: Example 5: plasma insulin pharmacokinetics, healthy male volunteers. Conditions: human, in vivo. The protocol:
In Group 1, there were four escalating single doses of 4-CNAB (400, 800, 1400 and 2000 mg) and each subject received either all four of these escalating doses or three escalating single doses and one dose of placebo. […] In Group 3 there were three escalating oral doses of Insulin/4-CNAB (100 Units/300 mg, 100 Units/450 mg and 150 Units/100 mg) and one SC dose of 150 Units of insulin. Each subject received either all four of these treatments or three of these treatments and one placebo treatment. For all groups, there was a washout period of at least 72 hours between treatment periods.
(§1) For insulin/4-CNAB treatment Groups 2 and 3, subjects' blood samples (1 drop per sample) were drawn at 15 minutes before dosing, and at 5, 10, 15, 20, 25, 30, 35, 40, and 50 minutes and at 1, 1.25, 1.5, 1.75, 2, 2.5, 3, 4, 6, 8 and 12 hours post-dose (21 samples per treatment for Insulin/4-CNAB dosing groups) for plasma glucose, insulin and C-peptide measurements. For the 4-CNAB alone treatment Group 1, blood samples were collected before dosing (−15 minutes), and at 30 minutes and at 2 hr post-dose for blood glucose measurements. For the insulin alone control group (minimum 3 subjects), blood samples (3 mL in sodium heparin tube) were drawn at 15 minutes before dosing, and at 10, 20, 30, 40, 50 minutes and 1, 1.25, 2, 2.5, 3 and 6 hr post-dose (12 samples per treatment). The blood samples for glucose were assayed in real time using a Glucometer®. These measurements were used for detection of onset of hypoglycemia, so rescue action could be taken where necessary. Plasma glucose, insulin and C-peptide measurements were done according to standard procedures.
(§2) On the basis of plasma concentrations of 4-CNAB and insulin, PK analysis was performed using non-compartmental PK methods as implemented in WinNonlin™ Professional version 3.2. The profiles for insulin and C-peptide corrected insulin were evaluated up to 6 hours as food was given 6 hours following insulin treatment. The following parameters were derived for 4-CNAB: Cmax, tmax, AUC(0-t), AUC(0-inf), AUC% Extrap, Kel, t1/2, CL/F, Vd/F, MRT(0-t), MRT(0-inf) and Frel. The following parameters were derived for insulin and C-peptide corrected insulin: Cmax, tmax, AUC(0-2), AUC(0-6), AUC(0-t) and concentrations (C^b) and corresponding time (t^b) immediately prior to intervention for hypoglycemia.
The plasma concentration-time profiles for 4-CNAB were evaluated in those subjects who received 4-CNAB or Insulin/4-CNAB treatments. Insulin, C-peptide and glucose concentration-time profiles following administration of all treatments were evaluated for the 20 subjects in Groups 2 and 3. Pharmacokinetic (“PK”) parameters for 4-CNAB, insulin and C-peptide corrected insulin, and pharmacodynamic (“PD”) parameters for glucose concentration change from baseline, respectively were calculated for subjects whether they required hypoglycemic rescue or not. Concentrations from subjects who required food/drink due to hypoglycemia were excluded from descriptive statistics.

The nature of series [4]: Example 5: C-peptide corrected insulin pharmacokinetics. The arrangement: species or system human. Conditions: in vivo; for C-peptide corrected insulin AUC(0-2) / C-peptide corrected insulin AUC(0-6) / C-peptide corrected insulin tmax, median: human. The method, then:
as §2
For the PK analysis of insulin, analysis was conducted for both measured insulin and C-peptide corrected insulin concentrations. This was done using concentrations of the precursor C-peptide and the following equation: Corrected Insulin Concentration=Insulin Concentration−(Baseline Ratio×C-peptide) where

The subject of series [5] is plasma C-peptide. Briefly: Example 5: plasma C-peptide. It is filed as in vivo, human. The method, then: as §1, with “Plasma glucose, insulin and C-peptide measurements were done according to standard procedures.” left out
Plasma C-peptide was measured using a DELFIA C-peptide kit, based on a solid phase, two-site fluoroimmunometric assay, which used the direct sandwich technique in which two monoclonal antibodies are directed against antigenic determinants on the C-peptide molecule. […] The fluorescence is directly proportional to the concentration of C-peptide in the sample.

The conditions of series [6]: monkey, in vivo.
For series [7], the system named is plasma C-peptide. Briefly: Example 6: plasma C-peptide during glucose clamp. It is filed as in vivo, human. Conditions: for C-peptide level, mean: 15 U SC. The method, then:
During each study period, blood samples were collected for the determination of plasma insulin concentrations, plasma C-peptide and plasma glucose concentration. Sampling occurred from 6 hrs before dosing and continued for 6 hrs after the dose was administered. Blood samples were collected via a venous cannula. Blood samples were collected relative to the administration of the study drug (1) prior to study of drug administration at −1 and −0.5 hrs, (2) immediately after study drug administration (time 0), and (3) post administration of the study drug at 10, 20, 30, 40, 50 min, and 1, 1.25, 1.5, 1.75, 2, 2.5, 3, 3.5, 4, 5, and 6 hrs
Blood samples were collected from each patient during each treatment period for determination of plasma insulin concentrations, plasma C-peptide, and plasma glucose. Glucose infusion rates and blood glucose measurements were measured continuously during the glucose clamp procedure. All treatments were identical in their sample collection and monitoring periods for all visits. After a 6 hours pre-dose baseline period for stabilization of blood glucose concentrations at the desired clamp level, the clamp procedure after study drug administration lasted 6 hours.

The conditions of series [8]: in vivo, sc.
From the text: Safety assessments included physical examinations, medical history, vital signs, 12-lead electrocardiogram (ECG) monitoring, laboratory evaluations and checking for adverse events. Activity parameters included blood glucose, insulin, C-peptide, and 4-CNAB plasma concentration measurements.

As to `O=C(O)CCCNC(=O)c1ccc(Cl)cc1O` [4-CNAB, 4-[(4-chloro, 2-hydroxybenzoyl)amino]butanoic acid], in series [1] (300 mg oral each), the “Fold greater penetration of the GI mucosa vs delivery agent 1” value was “more than 11 fold” and the “Fold greater penetration of the GI mucosa vs delivery agent 2” value is reported as “more than 6 fold”. In addition, the AUC in series [1] (monkey, plasma, oral, 300 mg) amounted to 499 ng·h/mL. For the same molecule, the Genotoxicity findings entry in series [2] is on record as “no positive findings”.

In the case of “oral insulin alone: recombinant human zinc insulin given orally without delivery agent”, in series [3] (po), the Cmax came to 0.0384 nM; the “Insulin AUC(0-2)” value was 51.8 ± 15.5 pmol·h/L; the “Insulin tmax, median” value turned out to be 0.43 h. For the same molecule, in series [4] (po), the “C-peptide corrected insulin AUC(0-2)” value worked out at 10.8 ± 16.6 pmol·h/L; the “C-peptide corrected insulin AUC(0-6)” value came out at 21.5 ± 42.0 pmol·h/L; the “C-peptide corrected insulin tmax, median” value is given as 2.00 h. For the same molecule, the “Change in C-peptide concentrations from baseline” value in series [5] (150 Units oral insulin alone) is recorded as “little change in C-peptide concentrations from baseline”. The “Absolute bioavailability of insulin” value in series [6] is reported as not above 1%.

Take “SC insulin: human regular insulin injected subcutaneously (Humulin R or equivalent; Calbiochem insulin in the rat studies)”: the Cmax in series [3] (sc) was found to be 0.375 nM. Besides, in series [3] (sc), the “Insulin AUC(0-2)” value was determined as 414.3 ± 181.5 pmol·h/L. Besides, the “Insulin AUC(0-6)” value in series [3] (sc) turned out to be 1228.5 ± 378.1 pmol·h/L. Besides, the “Insulin C^b (immediately prior to recovery from hypoglycemia)” value in series [3] (sc) is 168.3 ± 77.5 pmol/L. Moreover, the “Insulin Cmax” value in series [3] (sc) worked out at 54.5 ± 25.6 uU/ml. Further, the “Insulin t^b, median (range)” value in series [3] (sc) is recorded as 1.00 (0.75-1.25) h. For the same molecule, the Insulin tmax in series [3] (sc) was found to be 1.75 h. Besides, in series [3] (sc), the “Insulin tmax, median (range)” value is given as 1.88 (1.58-4.00) h. The “C-peptide corrected insulin AUC(0-2)” value in series [4] (sc) is 355.2 ± 170.2 pmol·h/L. Also, the “C-peptide corrected insulin AUC(0-6)” value in series [4] (sc) came out at 942.8 ± 333.0 pmol·h/L. The “C-peptide corrected insulin tmax, median” value in series [4] (sc) is reported as 1.88 h. In addition, the “C-peptide corrected insulin C^b” value in series [4] (sc) is reported as 159.5 ± 75.6 pmol/L. For the same molecule, the “C-peptide corrected insulin t^b, median” value in series [4] (sc) amounted to 1.00 h. Moreover, in series [5] (10 Units SC, carrier 0, unaudited data), the “% Max C-peptide Reduction” value is reported as 54.3 ± 9.8%. Besides, in series [7] (15 IU s.c., 300 IU oral and 150 IU oral), the “Change in C-peptide during treatment periods” value is “no significant changes”. Besides, the “C-peptide level, mean” value in series [7] (10 minutes) was 1.05 nmol/L; in series [7] (20 minutes), 1.07 nmol/L; in series [7] (30 minutes) it was 1.09 nmol/L; in series [7] (40 minutes) it was 1.11 nmol/L; in series [7] (50 minutes), 1.05 nmol/L; in series [7] (60 minutes), 1.04 nmol/L. Besides, the “C-peptide level, mean” value came out at 1.07 nmol/L in series [7] (75 minutes); 1.03 nmol/L in series [7] (90 minutes); 1.01 nmol/L in series [7] (105 minutes); 0.99 nmol/L in series [7] (120 minutes); 1.01 nmol/L in series [7] (150 minutes); 0.99 nmol/L in series [7] (180 minutes). Further, the “C-peptide level, mean” value in series [7] (210 minutes) is 0.97 nmol/L; in series [7] (240 minutes), 0.94 nmol/L; in series [7] (300 minutes) it was 0.96 nmol/L; in series [7] (360 minutes), 0.92 nmol/L; in series [7] (Time 0), 1.04 nmol/L; in series [7] (−30 minutes), 1.05 nmol/L. For the same molecule, in series [7] (−60 minutes), the “C-peptide level, mean” value worked out at 1.02 nmol/L. In addition, the “Hypoglycemia occasions requiring rescue treatment” value in series [8] is recorded as “twelve”. Besides, the Treatment-related adverse events entry in series [8] was “sixteen events”.
